Results published in EP3530280B1, “VETERINARY COMPOSITION FOR MANUFACTURING A SEMINAL ADDITIVE USEFUL FOR ARTIFICIAL INSEMINATION IN ANIMALS” (Universidad De León, priority 2016, dated 2020).

System: swine
Assay: Field studies of semen additive in swine artificial insemination (fecundity, birth fertility, prolificacy)
Assay type: in vivo
Conditions: Experimental Groups, amount per dose as given in the Composition column
Method: In order to examine the effect of the prepared pharmaceutical composition in Example 1 above, for use thereof in swine artificial insemination, field studies were carried out about the effects on fecundity, birth fertility and prolificacy (mean of the total piglets being born (either dead or alive) per delivery). Tables 1 and 2 show the results of the studies being carried out, observing how there are differences being statistically significant in all the experimental groups with respect to control groups.
The statistical characters of fecundity (%fecundity), prolificacy (N.T.), number of alive births (N.V.) and mortality (% of N.M. against N.T.), were tested on factorial ANOVA, LSD Fisher and SAS package (Statistical Analysis System). Table 1. Effects on fecundity and birth fertility

[1] = additive applied to seminal doses for swine artificial insemination

Substance: Oxytocin
- prolificacy (mean of the total piglets being born (either dead or alive) per delivery) (Mean ± e.s. (n)): 14.30 ± 0.29 (154)
- Birth Fertility (%) [1]: 88.89%
- Fecundity (%) [1]: 90.26%
